From US4016159A, “Acylamino-cephem-carboxylic acids containing an amidino or guanidino group in the molecule” (Hoechst Aktiengesellschaft, priority 1973, dated 1977)
In brackets after ≈: the same amount, converted by molar mass.

Columns and labels:
Type in all cases: cell-based
[1] = test system: Staphylococcus aureus 285; assay: Minimum inhibition concentration (MIC), Table 1; details: for MIC: Staphylococcus aureus, 285, Germ: Staphylococcus aureus 285, read-out: Minimum inhibition concentration (MIC)
Source text: (§1) Minimum inhibition concentration (MIC) in γ/ml
Germ: Staphylococcus aureus 285

Streptococcus pyogenes A = assay: Minimum inhibition concentration (MIC), Table 3; details: Germ: Streptococcus pyogenes A; for MIC: read-out: Minimum inhibition concentration MIC
Source text: Minimum inhibition concentration MIC in γ/ml
Germ: Streptococcus pyogenes A

Streptococcus D = assay: Minimum inhibition concentration (MIC), Table 4; details: Germ: Streptococcus D; for MIC: Streptococcus, read-out: Minimum inhibition concentration (MIC)
Source text: as §1

[2] = test system: Staphylococcus aureus SG 511; assay: Minimum inhibition concentration (MIC), Table 5; details: Staphylococcus aureus, SG511, Germ: Staphylococcus aureus SG 511; read-out: Minimum inhibition concentration (MIC)
Source text: as §1
Germ: Staphylococcus aureus SG 511

| MIC [1] | MIC (Streptococcus pyogenes A) | MIC (Streptococcus D) | MIC [2] | Minimum inhibition concentration (MIC) ([1]; Germ: Staphylococcus aureus 285) | Minimum inhibition concentration (MIC) (Streptococcus pyogenes A) | Minimum inhibition concentration (MIC) (Streptococcus D) | SMILES |
| --- | --- | --- | --- | --- | --- | --- | --- |
| 0.156 to 0.391 µg/mL (≈ 0.277 to 0.694 µM) | 0.000391 to 0.0078 µg/mL (≈ 0.000694 to 0.0138 µM) | 10 to 50 µg/mL (≈ 17.7 to 88.7 µM) | 0.0625 to 0.078 µg/mL (≈ 0.111 to 0.138 µM) |  |  |  | O=C(Cc1ccc(C2=NCCCN2)cc1)NC1C(=O)N2C(C(=O)O)=C(CSc3nc4ccccc4o3)CSC12 (stereo not shown) [Example 109, 3-[(benzoxazole-2-yl)-thiomethyl]-7-[4-(1,4,5,6-tetrahydropyrimide-2-yl)-phenylacetamido]-Δ3-cephem-4-carboxylic acid] |
| 0.5 to 1.25 µg/mL (≈ 0.892 to 2.23 µM) | 0.008 to 0.0156 µg/mL (≈ 0.0143 to 0.0278 µM) | 0.196 to 6.25 µg/mL (≈ 0.35 to 11.1 µM) | 0.0625 to 0.078 µg/mL (≈ 0.111 to 0.139 µM) |  |  |  | Cc1nnc(SCC2=C(C(=O)O)N3C(=O)C(NC(=O)COc4ccc(C5=NCCCN5)cc4)C3SC2)s1 (stereo not shown) [Example 34, 3-[(5-methyl-1,3,4-thiadizole-2-yl)-thiomethyl]-7-[4-(1,4,5,6-tetrahydropyromide-2-yl)-phenoxyacetamido]-Δ 3-cephem-4-carboxylic acid] |
| 0.156 to 0.391 µg/mL (≈ 0.263 to 0.66 µM) | 0.000391 to 0.0078 µg/mL (≈ 0.00066 to 0.0132 µM) | 0.196 to 6.25 µg/mL (≈ 0.331 to 10.5 µM) | 0.0196 to 0.0391 µg/mL (≈ 0.0331 to 0.066 µM) |  |  |  | O=C(Cc1ccc(C2=NCCN2)cc1)NC1C(=O)N2C(C(=O)O)=C(CSc3nnc(-c4ccccc4)s3)CSC12 (stereo not shown) [Example 52, 3-[(5-phenyl-1,3,4-thiadiazole-2-yl)-thiomethyl]-7-[4-(imidazoline-2-yl)-phenylacetamido] -Δ 3-cephem-4-carboxylic acid] |
| 0.156 to 0.391 µg/mL (≈ 0.268 to 0.671 µM) | 0.000391 to 0.0078 µg/mL (≈ 0.000671 to 0.0134 µM) | 10 to 50 µg/mL (≈ 17.2 to 85.8 µM) | 0.0196 to 0.0391 µg/mL (≈ 0.0336 to 0.0671 µM) |  |  |  | N=C(N)c1ccc(OCC(=O)NC2C(=O)N3C(C(=O)O)=C(CSc4nnc(-c5ccccc5)s4)CSC23)cc1 (stereo not shown) [Example 65, 3-[(5-phenyl-1,3,4-thiadiazole-2-yl)-thiomethyl]-7-(4-amidinophenoxyacetamido)-Δ 3-cephem-4-carboxylic acid] |
| 0.5 to 1.25 µg/mL (≈ 0.845 to 2.11 µM) | 0.000391 to 0.0078 µg/mL (≈ 0.000661 to 0.0132 µM) | 10 to 50 µg/mL (≈ 16.9 to 84.5 µM) | 0.0625 to 0.078 µg/mL (≈ 0.106 to 0.132 µM) |  |  |  | O=C(Cc1ccc(C2=NCCN2)cc1)NC1C(=O)N2C(C(=O)O)=C(CSc3nc(-c4ccccc4)cs3)CSC12 (stereo not shown) [Example 117, 3-[(4-phenyl-thiazole-2-yl)-thiomethyl]-7-[4-(imidazoline-2-yl)-phenylacetamido]-Δ3-cephem-4-carboxylic acid] |
| 0.5 to 1.25 µg/mL (≈ 0.939 to 2.35 µM) | 0.000391 to 0.0078 µg/mL (≈ 0.000734 to 0.0146 µM) | 10 to 50 µg/mL (≈ 18.8 to 93.9 µM) | 0.0625 to 0.078 µg/mL (≈ 0.117 to 0.146 µM) |  |  |  | O=C(COc1ccc(C2=NCCN2)cc1)NC1C(=O)N2C(C(=O)O)=C(CSc3nncs3)CSC12 (stereo not shown) [Example 73, 3-[(1,3,4-thiadiazole-2-yl)-thiomethyl]-7-[4-(imidazoline-2-yl)-phenoxyacetamido]-Δ 3-cephem-4-carboxylic acid] |
| 0.156 to 0.391 µg/mL (≈ 0.286 to 0.718 µM) | 0.000391 to 0.0078 µg/mL (≈ 0.000718 to 0.0143 µM) | 10 to 50 µg/mL (≈ 18.4 to 91.8 µM) | 0.0625 to 0.078 µg/mL (≈ 0.115 to 0.143 µM) |  |  |  | Cc1nsc(SCC2=C(C(=O)O)N3C(=O)C(NC(=O)Cc4ccc(C5=NCCCN5)cc4)C3SC2)n1 (stereo not shown) [Example 108, 3-[(3-methyl-1,2,4-thiadiazole-5-yl)-thiomethyl]-7-[4-(1,4,5,6-tetrahydropyrimide-22-yl)-phenylacetamido]-Δ3-cephem-4-carboxylic acid] |
| 0.156 to 0.391 µg/mL (≈ 0.275 to 0.69 µM) | 0.000391 to 0.0078 µg/mL (≈ 0.00069 to 0.0138 µM) | 10 to 50 µg/mL (≈ 17.6 to 88.2 µM) | 0.0196 to 0.0391 µg/mL (≈ 0.0346 to 0.069 µM) |  |  |  | N=C(N)c1ccc(OCC(=O)NC2C(=O)N3C(C(=O)O)=C(CSc4nnnn4-c4ccccc4)CSC23)cc1 (stereo not shown) [Example 31, 3-[(1-phenyl-1-H-tetrazole-5yl)-thiomethyl]-7-(4-amidinophenoxyacetamido)-Δ3-cephem-4-carboxylic acid] |
| 0.156 to 0.391 µg/mL (≈ 0.283 to 0.71 µM) | 0.000391 to 0.0078 µg/mL (≈ 0.00071 to 0.0142 µM) | 10 to 50 µg/mL (≈ 18.2 to 90.8 µM) | 0.0196 to 0.0391 µg/mL (≈ 0.0356 to 0.071 µM) |  |  |  | N=C(N)c1ccc(CC(=O)NC2C(=O)N3C(C(=O)O)=C(CSc4nnc(-c5ccccc5)o4)CSC23)cc1 (stereo not shown) [Example 56, 3-[(5-phenyl-1,3,4-oxadiazole-2-yl)-thiomethyl]-7-(4-amidinophenylacetamido)-Δ 3-cephem-4-carboxylic acid] |
| 0.156 to 0.391 µg/mL (≈ 0.28 to 0.701 µM) | 0.000391 to 0.0078 µg/mL (≈ 0.000701 to 0.014 µM) | 0.196 to 6.25 µg/mL (≈ 0.351 to 11.2 µM) | 0.0625 to 0.078 µg/mL (≈ 0.112 to 0.14 µM) |  |  |  | CC(C)c1csc(SCC2=C(C(=O)O)N3C(=O)C(NC(=O)Cc4ccc(C5=NCCN5)cc4)C3SC2)n1 (stereo not shown) [Example 112, 3-[(4-isopropyl-thiazole-2-yl)-thiomethyl]-7-[4-(imidazoline-2-yl)-phenylacetamido]-Δ3-cephem-4-carboxylic acid] |
| 0.156 to 0.391 µg/mL (≈ 0.308 to 0.772 µM) | 0.008 to 0.0156 µg/mL (≈ 0.0158 to 0.0308 µM) | 10 to 50 µg/mL (≈ 19.7 to 98.7 µM) | 0.0625 to 0.078 µg/mL (≈ 0.123 to 0.154 µM) |  |  |  | N=C(N)c1ccc(OCC(=O)NC2C(=O)N3C(C(=O)O)=C(CSc4nncs4)CSC23)cc1 (stereo not shown) [Example 63, 3-[(1,3,4-thiadiazole-2-yl)-thiomethyl]-7-(4amidinophenoxyacetamido)-Δ 3-cephem-4-carboxylic acid] |
| 0.5 to 1.25 µg/mL (≈ 0.964 to 2.41 µM) | 0.008 to 0.0156 µg/mL (≈ 0.0154 to 0.0301 µM) | 10 to 50 µg/mL (≈ 19.3 to 96.4 µM) | 0.0625 to 0.078 µg/mL (≈ 0.121 to 0.15 µM) |  |  |  | CCc1nnc(SCC2=C(C(=O)O)N3C(=O)C(NC(=O)Cc4ccc(C(=N)N)cc4)C3SC2)s1 (stereo not shown) [Example 122, 3-[(5-ethyl-1,3,4-thiadiazole-2-yl)-thiomethyl]-7-(4-amidino-phenylacetamido)-Δ3-cephem-4-carboxylic acid] |
| 0.156 to 0.391 µg/mL (≈ 0.269 to 0.674 µM) | 0.000391 to 0.0078 µg/mL (≈ 0.000674 to 0.0135 µM) | 10 to 50 µg/mL (≈ 17.2 to 86.2 µM) | 0.0625 to 0.078 µg/mL (≈ 0.108 to 0.135 µM) |  |  |  | O=C(Cc1ccc(C2=NCCCN2)cc1)NC1C(=O)N2C(C(=O)O)=C(CSc3nc4ccccc4s3)CSC12 (stereo not shown) [Example 85, 3-[benzothiazole-2-yl-thiomethyl]-7-[4-(1,4,5,6-tetrahydropyrimide-2-yl)-phenylacetamido]-Δ 3-cephem-4-carboxylic acid] |
|  |  |  | 0.0625 to 0.078 µg/mL (≈ 0.106 to 0.132 µM) | 0.156 to 0.391 µg/mL | 0.000391 to 0.0078 µg/mL | 10 to 50 µg/mL | O=C(Cc1ccc(C2=NCCCN2)cc1)NC1C(=O)N2C(C(=O)O)=C(CSc3nnc(-c4ccccc4)o3)CSC12 (stereo not shown) [Example 103, 3-[(5-phenyl-1,3,4-oxadiazole-2-yl)-thiomethyl]-7-[4-(1,4,5,6-tetrahydropyrimide-2-yl)-phenylacetamido]-Δ3-cephem-4-carboxylic acid] |
| 0.156 to 0.391 µg/mL (≈ 0.28 to 0.701 µM) | 0.000391 to 0.0078 µg/mL (≈ 0.000701 to 0.014 µM) | 10 to 50 µg/mL (≈ 17.9 to 89.7 µM) | 0.0625 to 0.078 µg/mL (≈ 0.112 to 0.14 µM) |  |  |  | Cc1nc(SCC2=C(C(=O)O)N3C(=O)C(NC(=O)Cc4ccc(C5=NCCCN5)cc4)C3SC2)sc1C (stereo not shown) [Example 106, 3-[(4,5-dimethylthiazole-2-yl)-thiomethyl]-7-[4-(1,4,5,6-tetrahydropyrimide-2-yl)-phenylacetamido]-Δ3-cephem-4-carboxylic acid] |
| 0.156 to 0.391 µg/mL (≈ 0.28 to 0.701 µM) | 0.000391 to 0.0078 µg/mL (≈ 0.000701 to 0.014 µM) | 0.196 to 6.25 µg/mL (≈ 0.351 to 11.2 µM) | 0.0625 to 0.078 µg/mL (≈ 0.112 to 0.14 µM) |  |  |  | CCCc1csc(SCC2=C(C(=O)O)N3C(=O)C(NC(=O)Cc4ccc(C5=NCCN5)cc4)C3SC2)n1 (stereo not shown) [Example 114, 3-[(4-n-propyl-thiazole-2-yl)-thiomethyl]-7-[4-(imidazoline-2-yl)-phenylacetamido]-Δ3-cephem-4-carboxylic acid] |
| 0.156 to 0.391 µg/mL (≈ 0.251 to 0.628 µM) | 0.000391 to 0.0078 µg/mL (≈ 0.000628 to 0.0125 µM) | 0.196 to 6.25 µg/mL (≈ 0.315 to 10 µM) | 0.0196 to 0.0391 µg/mL (≈ 0.0315 to 0.0628 µM) |  |  |  | O=C(COc1ccc(C2=NCCCN2)cc1)NC1C(=O)N2C(C(=O)O)=C(CSc3nnc(-c4ccccc4)s3)CSC12 (stereo not shown) [Example 50] |
| 0.156 to 0.391 µg/mL (≈ 0.273 to 0.684 µM) | 0.000391 to 0.0078 µg/mL (≈ 0.000684 to 0.0136 µM) | 0.196 to 6.25 µg/mL (≈ 0.343 to 10.9 µM) | 0.0625 to 0.078 µg/mL (≈ 0.109 to 0.136 µM) |  |  |  | CCCCc1csc(SCC2=C(C(=O)O)N3C(=O)C(NC(=O)Cc4ccc(C5=NCCN5)cc4)C3SC2)n1 (stereo not shown) [Example 113] |
| 0.156 to 0.391 µg/mL (≈ 0.294 to 0.737 µM) | 0.000391 to 0.0078 µg/mL (≈ 0.000737 to 0.0147 µM) | 10 to 50 µg/mL (≈ 18.8 to 94.2 µM) | 0.0196 to 0.0391 µg/mL (≈ 0.0369 to 0.0737 µM) |  |  |  | CCCCc1nnc(SCC2=C(C(=O)O)N3C(=O)C(NC(=O)Cc4ccc(C(=N)N)cc4)C3SC2)o1 (stereo not shown) [Example 54, 3-[(5-n-butyl-1,3,4-oxadiazole-2-yl)-thiomethyl]-7-(4-amidino-phenylacetamido)-Δ 3-cephem-4-carboxylic acid] |
